{"source": "paper PMC7487798", "about": "“Glutaredoxin 1 Deficiency Leads to Microneme Protein-Mediated Growth Defects in Neospora caninum” (Frontiers in Microbiology, 2020)", "target": "T1, NcGrx1 (rNcGrx1) (Neospora caninum, UniProt F0VCE0)", "T1 construct": "gene NCLIV_038390; recombinant NcGrx1; dithiol CPYC active site", "T1 sequence (F0VCE0 entry or part of it)": "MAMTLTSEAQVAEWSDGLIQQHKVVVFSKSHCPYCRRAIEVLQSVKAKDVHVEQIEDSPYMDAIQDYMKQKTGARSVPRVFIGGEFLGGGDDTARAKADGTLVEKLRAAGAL", "test": "HED assay, coupled to glutathione reductase, NADPH consumption at […] nm", "assay_type": "biochemical", "details": "0.05-2 mM HED, 600 nM enzyme, 1 mM GSH, 200 μM NADPH, 100 mM potassium phosphate, 1 mM EDTA, pH 7.0, 25 °C; HED preincubated 3 min with GSH to form the mixed disulfide"}
{"smiles": "OCCSSCCO", "note": "[β-hydroxyethyl disulfide]", "values": [{"measurement": "Km", "value": "208 ± 23.9", "unit": "µM"}]}
